# In paper PMC12621043, “Un-LOK-ing a New Approach for Conformational Selective Targeting of STK10 (LOK)” (ACS Medicinal Chemistry Letters, 2025):
# Molecular target: T1, STK10 (Homo sapiens, UniProt O94804)
# T1 construct: purchased in-house DSF kinase panel (SGC-style construct names; the trailing letter is the construct ID)
# Assay: DSF Tm panel
# Format: binding
# Details: 10 μM compound
# T1 sequence (O94804 18-317 limits assumed): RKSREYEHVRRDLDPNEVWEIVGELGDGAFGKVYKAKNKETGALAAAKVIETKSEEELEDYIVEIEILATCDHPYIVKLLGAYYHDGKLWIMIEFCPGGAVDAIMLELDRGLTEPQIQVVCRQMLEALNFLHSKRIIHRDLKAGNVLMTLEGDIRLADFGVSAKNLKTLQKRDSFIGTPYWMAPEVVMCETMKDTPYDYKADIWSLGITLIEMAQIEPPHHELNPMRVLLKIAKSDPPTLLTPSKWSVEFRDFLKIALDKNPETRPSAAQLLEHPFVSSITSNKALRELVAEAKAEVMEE
row,ΔTm at 10 µM,Compound
1,9.2 °C,Cc1ccc(F)cc1CNC(=O)Nc1ccc2cc1OCCOCCNc1ccn3ncc-2c3n1 [compound 26]
2,10.2 °C,O=C(NCc1ccccc1C(F)(F)F)Nc1ccc2cc1OCCOCCNc1ccn3ncc-2c3n1 [compound 27]

# Molecular target: T2, UKL3A (ULK3A) (Homo sapiens, UniProt Q6PHR2)
# T2 construct: purchased in-house DSF kinase panel (SGC-style construct names; the trailing letter is the construct ID)
# T2 sequence (Q6PHR2 1-279): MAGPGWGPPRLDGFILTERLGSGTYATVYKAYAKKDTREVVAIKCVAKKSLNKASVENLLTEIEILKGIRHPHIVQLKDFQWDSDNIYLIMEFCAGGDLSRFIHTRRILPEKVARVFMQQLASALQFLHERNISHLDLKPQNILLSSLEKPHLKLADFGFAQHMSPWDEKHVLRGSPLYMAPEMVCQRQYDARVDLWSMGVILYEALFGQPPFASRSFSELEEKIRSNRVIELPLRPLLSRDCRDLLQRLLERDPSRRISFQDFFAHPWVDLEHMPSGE
# Assay: DSF Tm panel
# Format: binding
# Details: 10 μM compound
row,ΔTm at 10 µM,Compound
1,3.9 °C,Cc1ccc(F)cc1CNC(=O)Nc1ccc2cc1OCCOCCNc1ccn3ncc-2c3n1 [compound 26]
2,4.5 °C,O=C(NCc1ccccc1C(F)(F)F)Nc1ccc2cc1OCCOCCNc1ccn3ncc-2c3n1 [compound 27]

# Molecular target: T3, CLK1A (Homo sapiens, UniProt P49759)
# T3 construct: purchased in-house DSF kinase panel (SGC-style construct names; the trailing letter is the construct ID)
# Assay: DSF Tm panel
# Format: binding
# Details: 10 μM compound
# T3 sequence (P49759 148-484): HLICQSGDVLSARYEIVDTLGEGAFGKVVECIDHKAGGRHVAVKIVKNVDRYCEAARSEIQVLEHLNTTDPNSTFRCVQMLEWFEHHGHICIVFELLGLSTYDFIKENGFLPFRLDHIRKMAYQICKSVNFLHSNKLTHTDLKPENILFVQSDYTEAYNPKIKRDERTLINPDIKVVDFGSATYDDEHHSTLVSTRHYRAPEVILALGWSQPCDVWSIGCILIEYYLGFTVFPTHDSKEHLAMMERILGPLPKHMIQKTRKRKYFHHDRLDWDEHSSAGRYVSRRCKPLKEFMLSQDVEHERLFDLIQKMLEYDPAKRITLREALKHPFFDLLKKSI
row,ΔTm at 10 µM,Compound
1,2.1 °C,Cc1ccc(F)cc1CNC(=O)Nc1ccc2cc1OCCOCCNc1ccn3ncc-2c3n1 [compound 26]
2,2.3 °C,O=C(NCc1ccccc1C(F)(F)F)Nc1ccc2cc1OCCOCCNc1ccn3ncc-2c3n1 [compound 27]

# Molecular target: T4, DAPK3 (DAPK3A) (Homo sapiens, UniProt O43293)
# T4 construct: purchased in-house DSF kinase panel (SGC-style construct names; the trailing letter is the construct ID)
# Assay: DSF Tm panel
# Format: binding
# Details: 10 μM compound
# T4 sequence (O43293 whole entry): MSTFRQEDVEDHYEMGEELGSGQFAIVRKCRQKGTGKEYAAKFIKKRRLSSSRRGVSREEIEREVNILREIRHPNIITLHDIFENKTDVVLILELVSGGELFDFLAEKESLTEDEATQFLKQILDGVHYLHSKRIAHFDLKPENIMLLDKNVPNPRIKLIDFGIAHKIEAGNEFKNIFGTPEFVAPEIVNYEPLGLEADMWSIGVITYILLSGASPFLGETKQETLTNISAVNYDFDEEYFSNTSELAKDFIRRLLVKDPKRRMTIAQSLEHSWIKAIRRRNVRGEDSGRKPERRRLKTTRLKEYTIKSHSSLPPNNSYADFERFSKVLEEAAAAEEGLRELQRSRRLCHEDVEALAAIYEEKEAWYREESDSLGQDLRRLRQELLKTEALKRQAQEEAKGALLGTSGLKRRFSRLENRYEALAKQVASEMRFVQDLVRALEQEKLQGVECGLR
row,ΔTm at 10 µM,Compound
1,1.2 °C,Cc1ccc(F)cc1CNC(=O)Nc1ccc2cc1OCCOCCNc1ccn3ncc-2c3n1 [compound 26]
2,1.2 °C,O=C(NCc1ccccc1C(F)(F)F)Nc1ccc2cc1OCCOCCNc1ccn3ncc-2c3n1 [compound 27]

# Molecular target: T5, MAP3K5A (Homo sapiens, UniProt Q99683)
# T5 construct: purchased in-house DSF kinase panel (SGC-style construct names; the trailing letter is the construct ID)
# Assay: DSF Tm panel
# Format: binding
# Details: 10 μM compound
# T5 sequence (Q99683 659-951): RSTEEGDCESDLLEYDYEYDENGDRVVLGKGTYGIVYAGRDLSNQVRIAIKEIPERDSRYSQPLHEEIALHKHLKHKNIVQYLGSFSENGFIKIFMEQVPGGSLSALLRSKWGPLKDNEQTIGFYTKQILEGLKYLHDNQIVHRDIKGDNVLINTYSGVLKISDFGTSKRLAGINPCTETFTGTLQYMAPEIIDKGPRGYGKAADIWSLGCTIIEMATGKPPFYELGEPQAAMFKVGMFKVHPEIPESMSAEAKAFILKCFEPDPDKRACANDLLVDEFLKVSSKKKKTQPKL
row,ΔTm at 10 µM,Compound
1,0.9 °C,Cc1ccc(F)cc1CNC(=O)Nc1ccc2cc1OCCOCCNc1ccn3ncc-2c3n1 [compound 26]
2,1.4 °C,O=C(NCc1ccccc1C(F)(F)F)Nc1ccc2cc1OCCOCCNc1ccn3ncc-2c3n1 [compound 27]

# Molecular target: T6, PCTK1A (Homo sapiens, UniProt Q00536)
# T6 construct: purchased in-house DSF kinase panel (SGC-style construct names; the trailing letter is the construct ID)
# Assay: DSF Tm panel
# Format: binding
# Details: 10 μM compound
# T6 sequence (Q00536 163-478): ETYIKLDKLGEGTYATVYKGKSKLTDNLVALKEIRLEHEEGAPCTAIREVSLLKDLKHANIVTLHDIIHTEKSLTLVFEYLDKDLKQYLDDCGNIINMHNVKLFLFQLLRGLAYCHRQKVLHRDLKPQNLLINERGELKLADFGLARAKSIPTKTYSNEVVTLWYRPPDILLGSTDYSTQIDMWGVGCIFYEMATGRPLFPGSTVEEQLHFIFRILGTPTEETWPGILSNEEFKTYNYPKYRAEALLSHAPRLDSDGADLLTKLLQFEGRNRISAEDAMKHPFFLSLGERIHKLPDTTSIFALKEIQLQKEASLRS
row,ΔTm at 10 µM,Compound
1,1 °C,Cc1ccc(F)cc1CNC(=O)Nc1ccc2cc1OCCOCCNc1ccn3ncc-2c3n1 [compound 26]
2,1.1 °C,O=C(NCc1ccccc1C(F)(F)F)Nc1ccc2cc1OCCOCCNc1ccn3ncc-2c3n1 [compound 27]

# Molecular target: T7, MAP2K6A (Homo sapiens, UniProt P52564)
# T7 construct: purchased in-house DSF kinase panel (SGC-style construct names; the trailing letter is the construct ID)
# T7 sequence (P52564 53-314): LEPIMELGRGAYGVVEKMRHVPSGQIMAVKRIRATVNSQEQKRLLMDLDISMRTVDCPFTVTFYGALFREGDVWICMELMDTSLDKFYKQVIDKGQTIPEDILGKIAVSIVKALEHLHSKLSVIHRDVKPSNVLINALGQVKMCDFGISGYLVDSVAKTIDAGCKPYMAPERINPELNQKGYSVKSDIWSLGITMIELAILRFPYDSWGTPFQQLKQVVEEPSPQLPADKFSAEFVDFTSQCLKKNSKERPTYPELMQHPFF
# Assay: DSF Tm panel
# Format: binding
# Details: 10 μM compound
row,ΔTm at 10 µM,Compound
1,0.7 °C,Cc1ccc(F)cc1CNC(=O)Nc1ccc2cc1OCCOCCNc1ccn3ncc-2c3n1 [compound 26]
2,1.2 °C,O=C(NCc1ccccc1C(F)(F)F)Nc1ccc2cc1OCCOCCNc1ccn3ncc-2c3n1 [compound 27]

# Molecular target: T8, CAMK2BA (Homo sapiens, UniProt Q13554)
# T8 construct: purchased in-house DSF kinase panel (SGC-style construct names; the trailing letter is the construct ID)
# Assay: DSF Tm panel
# Format: binding
# Details: 10 μM compound
# T8 sequence (Q13554 11-303): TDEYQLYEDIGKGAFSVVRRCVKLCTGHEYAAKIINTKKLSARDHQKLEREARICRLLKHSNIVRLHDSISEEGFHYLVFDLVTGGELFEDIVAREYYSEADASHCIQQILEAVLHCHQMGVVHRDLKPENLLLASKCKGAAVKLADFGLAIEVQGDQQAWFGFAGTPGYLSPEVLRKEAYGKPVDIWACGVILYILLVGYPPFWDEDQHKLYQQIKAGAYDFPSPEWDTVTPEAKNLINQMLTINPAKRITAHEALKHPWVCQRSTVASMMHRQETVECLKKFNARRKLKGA
row,ΔTm at 10 µM,Compound
1,0 °C,Cc1ccc(F)cc1CNC(=O)Nc1ccc2cc1OCCOCCNc1ccn3ncc-2c3n1 [compound 26]
2,-0.1 °C,O=C(NCc1ccccc1C(F)(F)F)Nc1ccc2cc1OCCOCCNc1ccn3ncc-2c3n1 [compound 27]

# Molecular target: T9, ABL1 (ABL1A) (Homo sapiens, UniProt P00519)
# T9 construct: purchased in-house DSF kinase panel (SGC-style construct names; the trailing letter is the construct ID)
# T9 sequence (P00519 229-512): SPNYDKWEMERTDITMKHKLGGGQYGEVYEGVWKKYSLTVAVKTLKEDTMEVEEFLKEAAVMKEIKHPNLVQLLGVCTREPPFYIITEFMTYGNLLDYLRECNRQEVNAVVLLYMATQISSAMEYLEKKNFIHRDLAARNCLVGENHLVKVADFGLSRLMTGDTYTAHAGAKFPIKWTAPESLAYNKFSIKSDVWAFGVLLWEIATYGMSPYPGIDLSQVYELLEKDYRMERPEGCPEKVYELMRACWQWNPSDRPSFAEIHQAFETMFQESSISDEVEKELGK
# Assay: DSF Tm panel
# Format: binding
# Details: 10 μM compound
row,ΔTm at 10 µM,Compound
1,0.6 °C,Cc1ccc(F)cc1CNC(=O)Nc1ccc2cc1OCCOCCNc1ccn3ncc-2c3n1 [compound 26]
2,2.4 °C,O=C(NCc1ccccc1C(F)(F)F)Nc1ccc2cc1OCCOCCNc1ccn3ncc-2c3n1 [compound 27]

# Molecular target: T10, PIM1 (PIM1A) (Homo sapiens, UniProt P11309)
# T10 construct: purchased in-house DSF kinase panel (SGC-style construct names; the trailing letter is the construct ID)
# Assay: DSF Tm panel
# Format: binding
# Details: 10 μM compound
# T10 sequence (P11309 whole entry): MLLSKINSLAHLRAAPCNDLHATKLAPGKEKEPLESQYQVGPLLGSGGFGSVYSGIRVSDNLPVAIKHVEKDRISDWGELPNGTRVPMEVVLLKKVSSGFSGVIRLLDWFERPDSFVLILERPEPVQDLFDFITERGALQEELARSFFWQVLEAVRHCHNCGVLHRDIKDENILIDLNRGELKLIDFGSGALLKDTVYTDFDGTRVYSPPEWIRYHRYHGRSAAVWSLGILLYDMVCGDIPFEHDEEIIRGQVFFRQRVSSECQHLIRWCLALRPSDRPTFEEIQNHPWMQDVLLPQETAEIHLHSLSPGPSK
row,ΔTm at 10 µM,Compound
1,1 °C,Cc1ccc(F)cc1CNC(=O)Nc1ccc2cc1OCCOCCNc1ccn3ncc-2c3n1 [compound 26]
2,1.1 °C,O=C(NCc1ccccc1C(F)(F)F)Nc1ccc2cc1OCCOCCNc1ccn3ncc-2c3n1 [compound 27]

# Molecular target: T11, GPRK5A (Homo sapiens, UniProt P34947)
# T11 construct: purchased in-house DSF kinase panel (SGC-style construct names; the trailing letter is the construct ID)
# Assay: DSF Tm panel
# Format: binding
# Details: 10 μM compound
# T11 sequence (P34947 186-514): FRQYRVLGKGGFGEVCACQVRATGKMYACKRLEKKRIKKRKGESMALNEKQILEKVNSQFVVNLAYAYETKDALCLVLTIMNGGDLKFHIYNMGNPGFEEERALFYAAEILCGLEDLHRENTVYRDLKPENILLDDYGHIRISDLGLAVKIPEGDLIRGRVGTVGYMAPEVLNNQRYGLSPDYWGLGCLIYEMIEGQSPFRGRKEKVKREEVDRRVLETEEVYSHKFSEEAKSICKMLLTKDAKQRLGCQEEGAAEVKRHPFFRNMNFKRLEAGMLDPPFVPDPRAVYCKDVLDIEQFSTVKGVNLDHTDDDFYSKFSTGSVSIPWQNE
row,ΔTm at 10 µM,Compound
1,0.1 °C,Cc1ccc(F)cc1CNC(=O)Nc1ccc2cc1OCCOCCNc1ccn3ncc-2c3n1 [compound 26]
2,0.2 °C,O=C(NCc1ccccc1C(F)(F)F)Nc1ccc2cc1OCCOCCNc1ccn3ncc-2c3n1 [compound 27]

# Molecular target: T12, BRAFA (Homo sapiens, UniProt P15056)
# T12 construct: purchased in-house DSF kinase panel (SGC-style construct names; the trailing letter is the construct ID)
# Assay: DSF Tm panel
# Format: binding
# Details: 10 μM compound
# T12 sequence (P15056 448-723): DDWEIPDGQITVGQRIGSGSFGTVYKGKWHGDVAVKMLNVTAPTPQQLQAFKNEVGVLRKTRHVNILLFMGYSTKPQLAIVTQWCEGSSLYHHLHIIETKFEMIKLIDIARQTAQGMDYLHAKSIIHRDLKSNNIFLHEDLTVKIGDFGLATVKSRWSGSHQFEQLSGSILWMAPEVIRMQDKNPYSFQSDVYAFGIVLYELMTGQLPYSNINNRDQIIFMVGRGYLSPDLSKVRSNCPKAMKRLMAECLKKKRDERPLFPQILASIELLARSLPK
row,ΔTm at 10 µM,Compound
1,-0.6 °C,Cc1ccc(F)cc1CNC(=O)Nc1ccc2cc1OCCOCCNc1ccn3ncc-2c3n1 [compound 26]
2,-0.4 °C,O=C(NCc1ccccc1C(F)(F)F)Nc1ccc2cc1OCCOCCNc1ccn3ncc-2c3n1 [compound 27]

# Molecular target: T13, CSNK1DA (Homo sapiens, UniProt P48730)
# T13 construct: purchased in-house DSF kinase panel (SGC-style construct names; the trailing letter is the construct ID)
# T13 sequence (P48730 1-294): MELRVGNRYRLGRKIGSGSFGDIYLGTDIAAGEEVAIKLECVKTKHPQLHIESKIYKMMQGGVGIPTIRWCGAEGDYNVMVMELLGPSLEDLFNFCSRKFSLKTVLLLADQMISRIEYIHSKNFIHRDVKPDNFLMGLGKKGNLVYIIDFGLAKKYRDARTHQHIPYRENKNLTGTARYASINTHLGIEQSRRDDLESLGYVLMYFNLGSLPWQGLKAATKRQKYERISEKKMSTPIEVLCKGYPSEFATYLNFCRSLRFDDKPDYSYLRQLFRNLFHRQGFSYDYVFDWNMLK
# Assay: DSF Tm panel
# Format: binding
# Details: 10 μM compound
row,ΔTm at 10 µM,Compound
1,-0.1 °C,Cc1ccc(F)cc1CNC(=O)Nc1ccc2cc1OCCOCCNc1ccn3ncc-2c3n1 [compound 26]
2,-0.5 °C,O=C(NCc1ccccc1C(F)(F)F)Nc1ccc2cc1OCCOCCNc1ccn3ncc-2c3n1 [compound 27]

# Molecular target: T14, OSR1A (Homo sapiens, UniProt O95747)
# T14 construct: purchased in-house DSF kinase panel (SGC-style construct names; the trailing letter is the construct ID)
# Assay: DSF Tm panel
# Format: binding
# Details: 10 μM compound
# T14 sequence (O95747 17-291): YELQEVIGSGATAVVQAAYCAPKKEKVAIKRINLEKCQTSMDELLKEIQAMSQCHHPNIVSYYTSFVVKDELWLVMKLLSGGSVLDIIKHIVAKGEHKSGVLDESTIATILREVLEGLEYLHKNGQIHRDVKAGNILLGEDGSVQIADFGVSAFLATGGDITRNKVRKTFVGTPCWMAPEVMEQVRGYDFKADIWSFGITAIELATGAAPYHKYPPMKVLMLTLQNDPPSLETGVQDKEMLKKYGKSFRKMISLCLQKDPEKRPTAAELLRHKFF
row,ΔTm at 10 µM,Compound
1,1.2 °C,Cc1ccc(F)cc1CNC(=O)Nc1ccc2cc1OCCOCCNc1ccn3ncc-2c3n1 [compound 26]
2,2.1 °C,O=C(NCc1ccccc1C(F)(F)F)Nc1ccc2cc1OCCOCCNc1ccn3ncc-2c3n1 [compound 27]

# Molecular target: T15, DMPK1A (Homo sapiens, UniProt Q09013)
# T15 construct: purchased in-house DSF kinase panel (SGC-style construct names; the trailing letter is the construct ID)
# T15 sequence (Q09013 1-629): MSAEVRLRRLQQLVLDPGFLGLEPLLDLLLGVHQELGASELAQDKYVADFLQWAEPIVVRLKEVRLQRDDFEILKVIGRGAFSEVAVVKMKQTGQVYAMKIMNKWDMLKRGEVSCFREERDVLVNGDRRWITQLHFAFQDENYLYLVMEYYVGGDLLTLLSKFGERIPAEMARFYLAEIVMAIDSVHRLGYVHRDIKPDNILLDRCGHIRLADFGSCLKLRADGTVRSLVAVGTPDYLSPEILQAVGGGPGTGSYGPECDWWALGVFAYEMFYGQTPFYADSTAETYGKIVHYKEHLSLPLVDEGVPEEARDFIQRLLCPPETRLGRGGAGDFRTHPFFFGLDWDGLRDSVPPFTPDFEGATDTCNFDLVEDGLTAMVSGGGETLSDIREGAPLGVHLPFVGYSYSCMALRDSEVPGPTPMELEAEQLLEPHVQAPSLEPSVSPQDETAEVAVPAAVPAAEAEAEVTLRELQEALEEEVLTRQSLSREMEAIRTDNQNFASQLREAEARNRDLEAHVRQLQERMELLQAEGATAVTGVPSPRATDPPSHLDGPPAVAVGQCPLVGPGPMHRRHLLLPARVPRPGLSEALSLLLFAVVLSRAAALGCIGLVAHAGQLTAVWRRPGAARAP
# Assay: DSF Tm panel
# Format: binding
# Details: 10 μM compound
row,ΔTm at 10 µM,Compound
1,0.3 °C,Cc1ccc(F)cc1CNC(=O)Nc1ccc2cc1OCCOCCNc1ccn3ncc-2c3n1 [compound 26]
2,0.2 °C,O=C(NCc1ccccc1C(F)(F)F)Nc1ccc2cc1OCCOCCNc1ccn3ncc-2c3n1 [compound 27]

# Molecular target: T16, SRPK1A (Homo sapiens, UniProt Q96SB4)
# T16 construct: purchased in-house DSF kinase panel (SGC-style construct names; the trailing letter is the construct ID)
# Assay: DSF Tm panel
# Format: binding
# Details: 10 μM compound
# T16 sequence (Q96SB4 80-653): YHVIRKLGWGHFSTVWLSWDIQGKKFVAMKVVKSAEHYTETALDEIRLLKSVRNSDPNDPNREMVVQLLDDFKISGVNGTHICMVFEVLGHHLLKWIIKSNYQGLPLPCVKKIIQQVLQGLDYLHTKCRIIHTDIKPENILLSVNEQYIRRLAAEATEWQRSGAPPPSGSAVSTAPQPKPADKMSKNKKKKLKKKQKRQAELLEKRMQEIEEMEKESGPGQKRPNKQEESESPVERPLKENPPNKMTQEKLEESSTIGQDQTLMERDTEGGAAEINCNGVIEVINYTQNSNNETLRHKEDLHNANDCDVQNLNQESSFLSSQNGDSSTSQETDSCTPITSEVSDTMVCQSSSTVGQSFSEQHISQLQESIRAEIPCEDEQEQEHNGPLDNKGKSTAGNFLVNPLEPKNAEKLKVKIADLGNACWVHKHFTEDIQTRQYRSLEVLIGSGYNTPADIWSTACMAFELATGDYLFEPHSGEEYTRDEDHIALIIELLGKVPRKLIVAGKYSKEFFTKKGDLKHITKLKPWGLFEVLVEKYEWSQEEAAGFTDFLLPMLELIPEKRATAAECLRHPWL
row,ΔTm at 10 µM,Compound
1,0 °C,Cc1ccc(F)cc1CNC(=O)Nc1ccc2cc1OCCOCCNc1ccn3ncc-2c3n1 [compound 26]
2,-0.1 °C,O=C(NCc1ccccc1C(F)(F)F)Nc1ccc2cc1OCCOCCNc1ccn3ncc-2c3n1 [compound 27]

# Molecular target: T17, AKT3A (Homo sapiens, UniProt Q9Y243)
# T17 construct: purchased in-house DSF kinase panel (SGC-style construct names; the trailing letter is the construct ID)
# Assay: DSF Tm panel
# Format: binding
# Details: 10 μM compound
# T17 sequence (Q9Y243 148-479): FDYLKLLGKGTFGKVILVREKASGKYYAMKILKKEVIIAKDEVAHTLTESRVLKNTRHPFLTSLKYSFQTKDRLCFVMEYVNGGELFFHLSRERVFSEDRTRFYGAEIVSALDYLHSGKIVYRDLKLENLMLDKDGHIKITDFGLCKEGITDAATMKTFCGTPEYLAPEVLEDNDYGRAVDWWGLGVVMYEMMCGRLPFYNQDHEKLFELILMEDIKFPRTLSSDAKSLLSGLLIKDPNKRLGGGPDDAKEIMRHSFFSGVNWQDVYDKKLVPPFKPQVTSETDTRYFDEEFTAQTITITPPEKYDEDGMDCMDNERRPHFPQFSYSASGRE
row,ΔTm at 10 µM,Compound
1,1.8 °C,Cc1ccc(F)cc1CNC(=O)Nc1ccc2cc1OCCOCCNc1ccn3ncc-2c3n1 [compound 26]
2,-0.1 °C,O=C(NCc1ccccc1C(F)(F)F)Nc1ccc2cc1OCCOCCNc1ccn3ncc-2c3n1 [compound 27]

# Molecular target: T18, MAPK14A (Homo sapiens, UniProt Q16539)
# T18 construct: purchased in-house DSF kinase panel (SGC-style construct names; the trailing letter is the construct ID)
# Assay: DSF Tm panel
# Format: binding
# Details: 10 μM compound
# T18 sequence (Q16539 whole entry): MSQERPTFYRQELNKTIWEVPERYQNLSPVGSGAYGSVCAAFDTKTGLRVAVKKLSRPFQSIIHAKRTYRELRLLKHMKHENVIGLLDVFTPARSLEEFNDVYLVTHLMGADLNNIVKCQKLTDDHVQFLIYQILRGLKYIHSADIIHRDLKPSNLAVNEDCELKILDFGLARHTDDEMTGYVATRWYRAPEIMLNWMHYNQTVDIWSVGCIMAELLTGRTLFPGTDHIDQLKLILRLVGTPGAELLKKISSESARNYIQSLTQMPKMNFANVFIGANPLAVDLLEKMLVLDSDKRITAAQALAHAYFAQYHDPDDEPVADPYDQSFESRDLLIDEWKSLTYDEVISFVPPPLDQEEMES
row,ΔTm at 10 µM,Compound
1,2.7 °C,Cc1ccc(F)cc1CNC(=O)Nc1ccc2cc1OCCOCCNc1ccn3ncc-2c3n1 [compound 26]
2,2.6 °C,O=C(NCc1ccccc1C(F)(F)F)Nc1ccc2cc1OCCOCCNc1ccn3ncc-2c3n1 [compound 27]
